According to ChEMBL document CHEMBL1126326, “Novel antagonists of the 5-HT3 receptor. Synthesis and structure-activity relationships of (2-alkoxybenzoyl)ureas” (J Med Chem, 1992):

These compounds were tested against T1, Serotonin 3 (5-HT3) receptor (Rattus norvegicus, UniProt P35563+Q9JJ16) (assay: In vitro antagonism of the 5-HT-3 receptor determined by inhibition of 5-HT-induced depolarization of the isolated rat vagus nerve.). Conditions: read-out: pA2 (converted).
T1 sequence (P35563 whole entry): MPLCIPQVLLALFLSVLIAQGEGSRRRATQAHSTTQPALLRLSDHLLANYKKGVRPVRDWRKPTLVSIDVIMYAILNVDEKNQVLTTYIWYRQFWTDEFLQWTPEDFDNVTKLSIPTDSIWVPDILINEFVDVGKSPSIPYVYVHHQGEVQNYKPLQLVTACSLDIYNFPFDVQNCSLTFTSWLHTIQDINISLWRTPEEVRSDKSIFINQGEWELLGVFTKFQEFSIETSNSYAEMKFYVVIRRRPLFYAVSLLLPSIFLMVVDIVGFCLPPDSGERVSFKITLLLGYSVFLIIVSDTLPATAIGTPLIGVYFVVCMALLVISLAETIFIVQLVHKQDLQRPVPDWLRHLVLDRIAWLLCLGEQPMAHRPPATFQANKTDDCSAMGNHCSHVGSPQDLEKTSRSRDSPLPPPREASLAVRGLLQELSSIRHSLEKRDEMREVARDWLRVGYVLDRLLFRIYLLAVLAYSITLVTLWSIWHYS
T1 sequence (Q9JJ16 whole entry): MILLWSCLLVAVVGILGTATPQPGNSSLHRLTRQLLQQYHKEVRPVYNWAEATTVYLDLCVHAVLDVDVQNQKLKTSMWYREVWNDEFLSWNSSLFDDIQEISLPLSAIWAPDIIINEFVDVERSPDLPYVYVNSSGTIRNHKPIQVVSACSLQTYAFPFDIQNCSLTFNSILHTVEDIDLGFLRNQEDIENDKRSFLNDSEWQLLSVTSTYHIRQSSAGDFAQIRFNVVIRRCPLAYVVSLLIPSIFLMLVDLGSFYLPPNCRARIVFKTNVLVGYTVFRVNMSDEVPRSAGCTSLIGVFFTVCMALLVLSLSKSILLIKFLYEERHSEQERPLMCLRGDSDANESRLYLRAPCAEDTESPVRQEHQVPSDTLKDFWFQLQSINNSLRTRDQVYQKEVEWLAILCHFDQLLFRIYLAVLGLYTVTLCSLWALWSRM
Type: functional

Structure (SMILES) | Kb
COc1ccccc1C(=O)NC(=O)N[C@H]1CN2CCC1CC2 | 7.08 nM
CN1CCC(OC(=O)NC(=O)c2cc(Cl)cc(Cl)c2)CC1 | 126 nM
COc1ccccc1C(=O)NC(=O)NC1CC2CCC(C1)N2C (centres undefined) [listing 1 of 2 here] | > 31.6 nM
CN1C2CCC1CC(NC(=O)NC(=O)c1ccccc1OCC1CC1)C2 (centres undefined) | 1.26 nM
COc1ccccc1C(=O)NC(=O)N[C@@H]1CN2CCC1CC2 | 56.2 nM
CCOc1ccccc1C(=O)NC(=O)NC1CC2CCC(C1)N2C (centres undefined) | 2.04 nM
COc1ccc(C(=O)NC(=O)NC2CN3CCC2CC3)cc1 (centres undefined) | > 316 nM
O=C(NC(=O)c1ccccc1F)NC1CN2CCC1CC2 (centres undefined) | > 316 nM
CC(C)Oc1ccccc1C(=O)NC(=O)NC1CC2CCC(C1)N2C (centres undefined) | 0.631 nM
Cc1ccccc1C(=O)NC(=O)NC1CN2CCC1CC2 (centres undefined) | 251 nM
COc1ccccc1C(=O)NC(=O)NC1CN2CCC1CC2 (centres undefined) | 10 nM
COc1cc([N+](=O)[O-])ccc1C(=O)NC(=O)NC1CC2CCC(C1)N2C (centres undefined) | > 100 nM
COc1ccccc1C(=O)NC(=O)OC1CN2CCC1CC2 (centres undefined) | 36.3 nM
COc1cccc(OC)c1C(=O)NC(=O)NC1CN2CCC1CC2 (centres undefined) | > 316 nM
CCCOc1ccccc1C(=O)NC(=O)NC1CC2CCC(C1)N2C (centres undefined) | 1.26 nM
CC(C)COc1ccccc1C(=O)NC(=O)NC1CC2CCC(C1)N2C (centres undefined) | 3.16 nM
CC(C)CCOc1ccccc1C(=O)NC(=O)NC1CC2CCC(C1)N2C (centres undefined) | 6.31 nM
COc1ccccc1C(=O)NC(=O)OC1CC2CCC(C1)N2C (centres undefined) | 17 nM
COc1ccccc1C(=O)NC(=O)NC1CC2CCCC(C1)N2C (centres undefined) | 39.8 nM
CCCCCOc1ccccc1C(=O)NC(=O)NC1CC2CCC(C1)N2C (centres undefined) | 31.6 nM
CN1C2CCC1CC(NC(=O)NC(=O)c1ccccc1O)C2 (centres undefined) | 12.6 nM
CCCCOc1ccccc1C(=O)NC(=O)NC1CC2CCC(C1)N2C (centres undefined) | 2 nM
COc1ccccc1C(=O)NC(=O)NC1CC2CCC(C1)N2C (centres undefined) [listing 2 of 2 here] | 2.51 nM
O=C(NC(=O)c1cc(Cl)cc(Cl)c1)NC1CN2CCC1CC2 (centres undefined) | 200 nM
COc1cc(N)c(Cl)cc1C(=O)NC(=O)NC1CC2CCC(C1)N2C (centres undefined) | 79.4 nM
COc1ccc(Cl)cc1C(=O)NC(=O)NC1CC2CCC(C1)N2C (centres undefined) | 46.8 nM
COc1cc(N)ccc1C(=O)NC(=O)NC1CC2CCC(C1)N2C (centres undefined) | 158 nM
CN1[C@@H]2CC[C@H]1C[C@@H](OC(=O)c1cc(Cl)cc(Cl)c1)C2 [BEMESETRON] | 15.8 nM
COc1cc(N)c(Cl)cc1C(=O)NC1CN2CCC1CC2 (centres undefined) [ZACOPRIDE] | 0.794 nM
